Structures are written as SMILES. Where two headings read alike, the source gives them in different places.

Results on six compounds are retold here after PMC8561395 (Biochemistry, 2021).

The target in assay [1] is T1, SsoPTP (Saccharolobus solfataricus, UniProt Q97VZ7).
T1 sequence (Q97VZ7 1-161): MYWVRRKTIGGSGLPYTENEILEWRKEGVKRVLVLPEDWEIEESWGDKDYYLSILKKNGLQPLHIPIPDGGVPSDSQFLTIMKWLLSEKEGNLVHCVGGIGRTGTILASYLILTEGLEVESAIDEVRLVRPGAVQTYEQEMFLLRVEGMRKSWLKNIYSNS
The assay is described as follows: Inhibition of SsoPTP activity by buffers, pNPP as substrate.

In assay [2] the test system is bovine low molecular weight PTP. To be noted: more strongly than observed for SsoPTP; cited from earlier work.
For assay [3], the target named is T1, SsoPTP. The assay is described as follows: Steady-state Michaelis-Menten kinetics with pNPP. The assay is classed as biochemical, Sulfolobus solfataricus. To be noted: read-out: KM for pNPP.

For `CC(=O)O` [Acetic acid], the “Inhibition of SsoPTP (in words)” value at SsoPTP [1] (pNPP substrate) was “no inhibitory effect”. The compound `O=S(=O)(O)CCCNC1CCCCC1` [CAPS] returned a Ki at SsoPTP [1] (pNPP substrate, 100 mM sodium acetate buffer pH 5.0, inhibitor 5–400 mM) of 54 ± 11 mM. `O=C(O)CC(O)(CC(=O)O)C(=O)O` [Citric acid] yielded a Ki on SsoPTP [1] of 8 ± 1 mM. With `O=S(=O)(O)CCN1CCN(CCO)CC1` [HEPES], the “Strength of inhibition of bovine low molecular weight PTP relative to SsoPTP” value in assay [2] was “about 10 fold”. For the same compound, the Ki on SsoPTP [1] came to 44 ± 8 mM.

Consider `O=S(=O)(O)CCCN1CCOCC1` [MOPS], for which the “Inhibition of SsoPTP (in words)” value on SsoPTP [1] (pNPP substrate) is recorded as “did not show measurable inhibition”.

As for `O=[N+]([O-])c1ccc(OP(=O)(O)O)cc1` [pNPP, p-nitrophenyl phosphate], at SsoPTP [3], the Km came out at 3.4 mM.
